Data on 12 molecules can be found in paper PMC13088243, “Quantifying Protein Homodimer Affinities and the Effect of Molecular Glues and Interface Residues Using Native Mass Spectrometry” (Journal of the American Chemical Society, 2026).

B5: Tryparedoxin (protein)
chain: MSGLAKYLPGATNLLSKSGEVSLGSLVGKTVFLYFSASWCPPCRGFTPVLAEFYEKHHVAKNFEVVLISWDENESDFHDYYGKMPWLALPFDQRSTVSELGKTFGVESIPTLITINADTGAIIGTQARTRVIEDPDGANFPWPN

For one series, the target named is BSA (Bos taurus) (UniProt P02769). The settings on record: cited from earlier work.
The target of series [1] is T1, Tpx WT (Trypanosoma brucei brucei, UniProt O77404).
T1 sequence (O77404 1-144): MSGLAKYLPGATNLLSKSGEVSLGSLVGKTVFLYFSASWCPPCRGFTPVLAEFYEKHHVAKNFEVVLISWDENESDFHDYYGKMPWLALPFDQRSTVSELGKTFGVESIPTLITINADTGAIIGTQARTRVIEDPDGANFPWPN
The arrangement: method as in Schwegler et al., bioRxiv 2025. The settings on record: Tpx WT with molecular glue; previous dilution ITC; ref Schwegler et al., bioRxiv 2025; read-out: K D,ITC of Tpx homodimer; cited from earlier work.

The target in series [2] is T1, Tpx WT. Nature of the series: biochemical. The class given is binding. The settings on record: for rD,LILBID @ 1100 µm / rD,solution: Tpx WT with or without molecular glue; for rD,LILBID @ 1100 µm: from linear fits of dissociation plots; for rD,solution: from rD,LILBID with calibration factor f1100.
Series [3] has as its target T2, Tpx K102E (Trypanosoma brucei brucei, UniProt O77404, K102E). Briefly: biochemical. The class given is binding.
In another series the target is Tpx K102A (Trypanosoma brucei brucei, UniProt O77404, K102A). Briefly: biochemical. Format: binding.
Sequence of Tpx K102A (O77404 whole entry K102A): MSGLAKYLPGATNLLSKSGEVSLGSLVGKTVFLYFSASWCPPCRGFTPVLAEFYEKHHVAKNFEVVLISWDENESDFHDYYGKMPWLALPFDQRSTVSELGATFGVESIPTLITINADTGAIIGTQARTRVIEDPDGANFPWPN
For series [4], the target named is T2, Tpx K102E. Also on record: method as in Schwegler et al., bioRxiv 2025. The settings on record: Tpx K102E with molecular glue; previous dilution ITC; ref Schwegler et al., bioRxiv 2025; read-out: K D,ITC of Tpx homodimer; cited from earlier work.
The next series has as its target Tpx W39A (Trypanosoma brucei brucei, UniProt O77404, W39A). Briefly: biochemical. Format: binding.
The series “Tryparedoxin” concerns the target B5. Briefly: qLILBID-MS.
The series “qLILBID-MS” concerns the molecule itself. Nature of the series: qLILBID-MS.

Values joined by “and” are separate entries in the source; they are usually repeats but may differ in a detail not shown here. Identical values can stand only once. Like-named read-outs stand apart in the source and are kept apart here. Bounds are passed on as bounds.

Sequence of Tpx W39A (O77404 whole entry W39A): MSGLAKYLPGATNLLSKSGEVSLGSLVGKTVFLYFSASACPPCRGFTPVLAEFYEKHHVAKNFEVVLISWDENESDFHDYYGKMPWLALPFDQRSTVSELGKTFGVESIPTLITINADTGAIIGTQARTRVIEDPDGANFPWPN
T2 sequence (O77404 whole entry K102E): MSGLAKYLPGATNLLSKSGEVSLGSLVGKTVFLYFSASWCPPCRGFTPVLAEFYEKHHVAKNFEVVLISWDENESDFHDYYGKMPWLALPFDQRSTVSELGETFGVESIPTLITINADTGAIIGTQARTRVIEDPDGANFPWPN

BSA (from UniProt P02769): in the series with BSA (Bos taurus), the Kd is 10 µM.

`O=c1[nH]c(CCl)nc2scc(-c3ccccc3)c12` [CPT]: at Tpx WT [1], the Kd is 6 ± 2.2 µM. At Tpx WT [2], the Kd came to 16 ± 9 µM, the “rD,LILBID @ 1100 µm” value came to 0.871 ± 0.033 and the “rD,solution” value was determined as 0.568 ± 0.088.

As to `O=c1[nH]c(CCl)nc2scc(-c3cccc(F)c3)c12` [meta-CFT], the Kd on Tpx WT [1] is 3.7 ± 1.5 µM. Moreover, at Tpx WT [2], the Kd worked out at 6 ± 5 µM, the “rD,LILBID @ 1100 µm” value was found to be 0.809 ± 0.058 and the “rD,solution” value is on record as 0.420 ± 0.124.

For the molecule `O=c1[nH]c(CCl)nc2scc(-c3ccc(F)cc3)c12` [para-CFT, 2-(chloromethyl)-5-(4-fluorophenyl)thieno[2,3-d]pyrimidin-4(3H)-one], the Kd at Tpx K102E [3] is 70 ± 16 µM; at Tpx K102A (K D,LILBID of Tpx homodimer, Tpx K102A with para-CFT or none, ew 1100 μm, triplicate) it was 37 µM and 36 µM; at Tpx WT [1], 5.3 ± 1.9 µM; on Tpx K102E [4], 83 ± 32 µM; on Tpx W39A, 300 ± 110 µM; at Tpx WT [2], 5 ± 4 µM. Besides, the “rD,LILBID @ 1100 µm” value at Tpx K102E [3] (Tpx K102E with or without para-CFT) is 0.942 ± 0.008; on Tpx K102A (Tpx K102A with or without para-CFT), 0.914 ± 0.027; on Tpx W39A (Tpx W39A with or without para-CFT), 0.980 ± 0.006; on Tpx WT [2] it was 0.798 ± 0.048. For the same molecule, the “rD,solution” value was 0.782 ± 0.029 on Tpx K102E [3] (Tpx K102E with or without para-CFT, from rD,LILBID with f1100); 0.692 ± 0.084 at Tpx K102A (Tpx K102A with or without para-CFT, from rD,LILBID with f1100); 0.921 ± 0.023 at Tpx W39A (Tpx W39A with or without para-CFT, from rD,LILBID with f1100); 0.398 ± 0.099 at Tpx WT [2].

With `O=c1[nH]c(CCl)nc2scc(-c3ccc(C(F)(F)F)cc3)c12` [CtFT], the Kd on Tpx WT [1] was 410 ± 56 µM. Moreover, at Tpx WT [2], the Kd amounted to 360 ± 110 µM, the “rD,LILBID @ 1100 µm” value came out at 0.983 ± 0.004 and the “rD,solution” value is listed as 0.932 ± 0.017.

Regarding `O=c1[nH]c(CCl)nc2scc(-c3ccccc3F)c12` [ortho-CFT], the Kd at Tpx WT [1] is 32 ± 7 µM. Also, at Tpx WT [2], the “rD,LILBID @ 1100 µm” value is reported as 0.897 ± 0.024 and the “rD,solution” value was 0.642 ± 0.072.

B1: Tryparedoxin (protein)
chain: MSGLAKYLPGATNLLSKSGEVSLGSLVGKTVFLYFSASWCPPCRGFTPVLAEFYEKHHVAKNFEVVLISWDENESDFHDYYGKMPWLALPFDQRSTVSELGKTFGVESIPTLITINADTGAIIGTQARTRVIEDPDGANFPWPN
modifications: ortho-CFT covalently bound to C40
Take B1: the Kd with Tryparedoxin was determined as 26 µM.

B2: Tryparedoxin (protein)
chain: MSGLAKYLPGATNLLSKSGEVSLGSLVGKTVFLYFSASWCPPCRGFTPVLAEFYEKHHVAKNFEVVLISWDENESDFHDYYGKMPWLALPFDQRSTVSELGKTFGVESIPTLITINADTGAIIGTQARTRVIEDPDGANFPWPN
modifications: CtFT covalently bound to C40
As for B2, in the series with Tryparedoxin, the Kd was determined as 360 µM.

B3: Tryparedoxin (protein)
chain: MSGLAKYLPGATNLLSKSGEVSLGSLVGKTVFLYFSASWCPPCRGFTPVLAEFYEKHHVAKNFEVVLISWDENESDFHDYYGKMPWLALPFDQRSTVSELGKTFGVESIPTLITINADTGAIIGTQARTRVIEDPDGANFPWPN
modifications: para-CFT covalently bound to C40
Molecule B3 had a Kd in the series with Tryparedoxin of 5 µM.

B4: Tryparedoxin (protein)
chain: MSGLAKYLPGATNLLSKSGEVSLGSLVGKTVFLYFSASWCPPCRGFTPVLAEFYEKHHVAKNFEVVLISWDENESDFHDYYGKMPWLALPFDQRSTVSELGKTFGVESIPTLITINADTGAIIGTQARTRVIEDPDGANFPWPN
modifications: CPT covalently bound to C40
Turning to B4, in the series with Tryparedoxin, the Kd came out at 16 µM.

Take B5: in “qLILBID-MS”, the Kd is more than 500 µM.

B6: Tryparedoxin (protein)
chain: MSGLAKYLPGATNLLSKSGEVSLGSLVGKTVFLYFSASWCPPCRGFTPVLAEFYEKHHVAKNFEVVLISWDENESDFHDYYGKMPWLALPFDQRSTVSELGKTFGVESIPTLITINADTGAIIGTQARTRVIEDPDGANFPWPN
modifications: meta-CFT covalently bound to C40
The molecule B6 showed a Kd with Tryparedoxin of 6 µM.
